In patent US20230210896A9, “METHOD FOR T CELL ACTIVATION FOR CANCER TREATMENT” (GOOD T CELLS, INC., priority 2019, published 2023):

System: CD8-expressing T cells
Test: ELISPOT of IFN-γ secretion in T cells activated by dendritic cells loaded with LMP2a epitope groups
Format: cell-based, human
Conditions: DC:CD8 T cells 1:10, 18 hours
[1] = healthy human donor N5 (N5-1 and N5-2, repeated twice), FIGS. 1 and 2
[2] = healthy human donor N15, FIG. 4

Row | Substance | expression of IFN-γ in T cells (ELISPOT) [1] | expression of IFN-γ in T cells (ELISPOT) (healthy human donor N9, FIG. 3) | expression of IFN-γ in T cells (ELISPOT) [2]
1 | 3 (MGAGPPSPGGDPDGD; LMP2a epitope) [compound 3] | increased expression of IFN-γ | increased expression of IFN-γ | increased expression of IFN-γ
2 | 5 (GGDPDGDDGGNNSQY; LMP2a epitope) [compound 5] | – | – | increased expression of IFN-γ
3 | 8 (SQYPSASGSYGNTPT; LMP2a epitope) [compound 8] | – | increased expression of IFN-γ | increased expression of IFN-γ
4 | 9 (SASGSYGNTPTPPND; LMP2a epitope) [compound 9] | increased expression of IFN-γ | – | increased expression of IFN-γ
5 | 12 (PNDEERESNEEPPPP; LMP2a epitope) [compound 12] | increased expression of IFN-γ | – | –
6 | 15 (PPPYEDLDWGNGDRH; LMP2a epitope) [compound 15] | increased expression of IFN-γ | increased expression of IFN-γ | increased expression of IFN-γ
7 | 16 (EDLDWGNGDRHSDYQ; LMP2a epitope) [compound 16] | – | increased expression of IFN-γ | –
8 | 18 (DRHSDYQPLGNQDPS; LMP2a epitope) [compound 18] | increased expression of IFN-γ | – | –
9 | 19 (DYQPLGNQDPSLYLG; LMP2a epitope) [compound 19] | – | increased expression of IFN-γ | –
10 | 20 (LGNQDPSLYLGLQHD; LMP2a epitope) [compound 20] | – | increased expression of IFN-γ | –
